Reference: ChEMBL document CHEMBL1138707, “Bridgehead modification of trihalocycloheptabenzopyridine leads to a potent farnesyl protein transferase inhibitor with improved oral metabolic stability” (Bioorg Med Chem Lett, 2004)

Experiments:
[1] = Area under the curve in rats by administering perorally; assay type: ADME; conditions: rat, in vivo, po
[2] = biological target: T1, Protein farnesyltransferase (Homo sapiens, UniProt P49354+P49356); test: Percent inhibition of [3H]FPP incorporation into H-ras CVLS by Farnesyltransferase at 17; assay type: protein-complex assay; conditions: concentration not given here
[3] = Inhibition of H-Ras transformed NIH3T3 cell proliferation; assay type: functional, cell-based
[4] = Inhibition of COS cell proliferation; assay type: functional, cell-based
[5] = Inhibition of soft agar colony formation in H-Ras transformed cells; assay type: functional, cell-based
[6] = Oral bioavailability in rat; assay type: ADME, organism-based; conditions: in vivo
[7] = biological target: T1, Protein farnesyltransferase; test: Inhibition of [3H]FPP incorporation into H-ras CVLS by Farnesyltransferase; assay type: protein-complex assay

NC(=O)N1CCC(CC(=O)N2CCC([C@@H]3c4ncc(Br)cc4C=Cc4cc(Cl)cc(Br)c43)CC2)CC1
AUC [1]: 7 µg/h/mL

O=C(Cc1cc[n+]([O-])cc1)N1CCC([C@H]2c3ncc(Br)cc3C=Cc3cc(Cl)cc(Br)c32)CC1
inhibition [2]: 44%

NC(=O)N1CCC(CC(=O)N2CCC([C@H]3c4ncc(Br)cc4CCc4cc(Cl)cc(Br)c43)CC2)CC1 [LONAFARNIB]
IC50 [3]: 72000 nM
IC50 [4]: 10 nM
IC50 [5]: 70 nM
bioavailability [6]: 76%
AUC [1]: 24.1 µg/h/mL

CS(=O)(=O)N1CCC([C@@H]2c3ncc(Br)cc3C=Cc3cc(Cl)cc(Br)c32)CC1
IC50 [5]: > 500 nM
AUC [1]: 45.4 µg/h/mL

O=C(Cc1cc[n+]([O-])cc1)N1CCC([C@@H]2c3ncc(Br)cc3C=Cc3cc(Cl)cc(Br)c32)CC1
IC50 [7]: 0.32 nM
IC50 [5]: 30 nM
AUC [1]: 15.5 µg/h/mL
